Measured values from article PMC6315541, “Nile Tilapia Derived Antimicrobial Peptide TP4 Exerts Antineoplastic Activity Through Microtubule Disruption” (Marine Drugs, 2018).

Tested on: α-Tubulin
Test: Co-immunoprecipitation (TP4 antibody pull-down), LC-MS/MS and immunoblot
Type: binding, Homo sapiens
Settings: lysates of A549 cells treated with 10 μg mL^−1 TP4 for 3 h
Procedure: To characterize the intracellular targets of TP4, cell lysates from A549 cells treated with 10 μg mL^−1 TP4 for 3 h were pulled down with the TP4 antibody, see Figure 1A. The dominant band was excised from the gel and analyzed by LC-MS/MS. Based on a MASCOT search for peptides found by MS, the potential binding target for TP4 was identified as α-Tubulin, see Figure 1C and Supplementary Dataset S1. […] Because tubulin is the major component of microtubules, we hypothesized that the cytotoxic effects of intracellular TP4 may be related to microtubule dynamics.
Figure 1 TP4 interacts with α-Tubulin. (A) Procedure showing the pull down of TP4 interaction partners with TP4 antibody. […] (C) Protein database searching of peptides detected by MS identified α-Tubulin as a TP4 binding partner. α-Tubulin sequence is shown. […]
Cell lysates were prepared in immunoprecipitation (IP) detergent (50 mM Tris-HCl, pH 8.0, 150 mM NaCl, 1% Igepal CA-630: Sigma-Aldrich, St. Louis, MO, USA) with protease cocktail (Roche Applied Science, Mannheim, Germany). […] The mass spectrometry data were analyzed by Mascot engine (v.2.6.0) (Matrix Science Inc., Boston, MA, USA) to identify candidate interaction targets. […] Signals were detected by enhanced chemiluminescence (Immobilon Western Chemiluminescent HRP substrate, Merck Millipore, Billerica, MA, USA) on an imaging system (UVP, BioSpectrumTM 500, Upland, CA, USA). […]

## FIHHIIGGLFSAGKAIHRLIRRRRR [TP4, synthesized Nile tilapia-derived antimicrobial peptide, Tilapia piscidin 4]
  interaction with α-Tubulin (IP with TP4 antibody, probed with α-Tubulin antibody): confirming the interaction between TP4 and α-Tubulin
